Measurements from patent US20110046378A1, “Novel Imaging Agents for Detecting Neurological Dysfunction” (SIEMENS MEDICAL SOLUTIONS USA, INC., priority 2008, published 2011).
pIC50: −log10 of the molar value. Where two headings read alike, the source gives them in different places.

Assays:
[1] = target: Aβ(1-42) Oligomers/Polymers (Homo sapiens, UniProt P05067); assay: Biacore (SPR) screening on immobilized Aβ42 oligomers/soluble polymers; type: binding; set-up: Binding to oligomers/polymers (Aβ1-42): key to the marks not given beside the values; details: for BINDING LEVELS TO Aβ(1-42) Oligomers/Polymers: screening compounds at 10 uM
Aβ(1-42) Fibrils = Aβ(1-42) Fibrils (Homo sapiens, UniProt P05067); assay: Biacore (SPR) screening on immobilized Aβ42 fibrils; type: binding; details: for BINDING LEVELS TO Aβ(1-42) Fibrils: screening compounds at 10 uM;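 for BINDING LEVELS TO Aβ(1-42) Fibrils: minus means no binding and more plus signs mean higher affinity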
[2] = target: T1, Amyloid (AD patient's brain slice) (Homo sapiens, UniProt P05067); assay: IC50 determination with [18F]-PiB by ex vivo competition assay using autoradiography staining; type: binding
T1 construct: The brain slices were 20 um thick
Text: Ex Vivo Competition Assay Using Amyloid (AD patient's brain slice) Autoradiography Staining

[3] = test system: Amyloid (AD brain slices); assay: [18F]-CB001 competition studies on AD brain slices; type: binding, human; details: cold competitor, increasing concentrations
[4] = determination 4, vs [18F]-PiB, read-out: IC50 4
[5] = mean of determinations, vs [18F]-PiB, read-out: Average IC50
[6] = determination 5, vs [18F]-PiB, read-out: IC50 5
[7] = determination 6, vs [18F]-PiB, read-out: IC50 6

T1 sequence (P05067 672-711 limits assumed): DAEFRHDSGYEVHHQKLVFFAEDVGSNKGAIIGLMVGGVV
Sequence of Aβ(1-42) Fibrils (P05067 672-713 limits assumed): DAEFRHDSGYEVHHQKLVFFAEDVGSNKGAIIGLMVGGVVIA
Sequence of Aβ(1-42) Oligomers/Polymers (P05067 672-713 limits assumed): as above

Compound	BINDING LEVELS TO Aβ(1-42) Oligomers/Polymers [1]	BINDING LEVELS TO Aβ(1-42) Fibrils (Aβ(1-42) Fibrils)	also measured
Nc1cccc(-c2cn(-c3cc(Cl)cc(Cl)c3)nn2)c1	+	+	
O=c1cc(-c2ccccc2)oc2cc(O)ccc12	+	+	
COc1cccc2oc(-c3ccccc3)cc(=O)c12	+	−	
Cc1oc2c(C)c(O)ccc2c(=O)c1-c1nncn1-c1ccccc1	++	−	
COc1ccc2oc(-c3ccc(OC)c(OC)c3)c(OC)c(=O)c2c1	+++	+	
Oc1ccc2c(c1)[nH]c1ccccc12 [drawing 33]	+++	+	
Nc1ccc(O)c2ncccc12	++	+	
Oc1cnc(Cl)c2ccccc12	+	−	
COc1ccc2c(=O)c(-c3ccccc3)c(C)oc2c1OC	+	−	
CCOc1ccc(Oc2c(C)oc3cc(O)ccc3c2=O)cc1	+	−	
Nc1ccc2[nH]c(C(F)(F)F)nc2c1	++	+	
Cc1oc2cc(O)ccc2c(=O)c1-c1ccc(F)cc1	+	+	
Oc1ccc2c(c1)[nH]c1ccccc12 [drawing 135]			Binding to oligomers/polymers (Aβ1-42) ([1]; carbazole-based hits): +++; Binding to fibrils (Aβ1-42) (Aβ(1-42) Fibrils; carbazole-based hits): +
O=c1cc(-c2ccccc2)oc2ccc(O)cc12	++	+	
Cc1nccc2c1[nH]c1cc(O)ccc12 [drawing 32]	++	+	
O=CNc1ccc2c(c1)[nH]c1cc(OCCOCCOCCF)ccc12 [CB-010, N-(7-(2-(2-(2-fluoroethoxy)ethoxy)ethoxy)-9H-carbazol-2-yl)formamide]			pIC50 [2, 4]: 6.05; pIC50 [2, 5]: 6.05
C[S+]([O-])c1ccc(-c2nc(-c3ccc(F)cc3)c(-c3ccncc3)[nH]2)cc1 (stereo not shown)	++	+	
[11CH3]Nc1ccc(-c2nc3ccc(O)cc3s2)cc1 [PiB, reference compound]			blocking of [18F]-CB001 staining [3]: blocks [18F]-CB001 staining with increasing concentrations
CN(C)c1ccc2c(c1)[nH]c1cc(OCCOCCOCCF)ccc12 [CB-007, 7-(2-(2-(2-fluoroethoxy)ethoxy)ethoxy)-N,N-dimethyl-9H-carbazol-2-amine]			pIC50 ([2]; determination 1, vs [18F]-PiB, read-out: IC50 1): 6.59; pIC50 ([2]; determination 3, vs [18F]-PiB, read-out: IC50 3): 6.77; pIC50 [2, 6]: 6.70; pIC50 [2, 7]: 6.54; pIC50 ([2]; determination 13, vs [18F]-PiB, read-out: IC50 13): 6.52; pIC50 [2, 5]: 6.61
O=c1c(O)c(-c2ccc(O)c(O)c2)oc2cc(O)ccc12	++++++	+++++	
Fc1ccc(-c2nc(-c3ccccc3)c(-c3ccccc3)[nH]2)cc1		−	
Fc1cc(F)cc(-c2cn(-c3cc(Cl)ccc3Cl)nn2)c1	+	−	
O=CNc1ccc2c(c1)[nH]c1cc(OCCF)ccc12 [CB-012, N-(7-(2-fluoroethoxy)-9H-carbazol-2-yl)formamide]			pIC50 [2, 4]: 6.21; pIC50 [2, 6]: 6.52; pIC50 [2, 7]: 6.35; pIC50 ([2]; determination 7, vs [18F]-PiB, read-out: IC50 7): 6.41; pIC50 [2, 5]: 6.36
Cc1cc(C)c2oc(-c3ccco3)c(O)c(=O)c2c1	+	−	
Fc1cc(F)cc(-c2cn(-c3ccc(F)cc3F)nn2)c1	++++	−	
